Laboratory results taken from patent publication US20040029823A1, “Antisense oligonucleotide compositions and methods for the modulation of JNK proteins” (priority 1997, published 2004).
Strand notation (5' to 3'): a small letter for the sugar, then the base; units joined by * are phosphorothioate-linked, units joined directly phosphodiester-linked; [ ] holds rarer units or linkages, { } end groups; capitals alone tell only the bases. e = 2'-O-(2-methoxyethyl) (MOE); [5mC] = 5-methylcytosine; d = 2'-deoxy (DNA)

What was measured:
rat JNK2 mRNA = experiment: Northern assay of rat JNK2 (p54a) mRNA in A10 aortic smooth muscle cells; assay type: cell-based; parameters: inhibition of rat JNK2 mRNA levels / % INHIBITION: concentration or dose not given beside the values; conditions: for % INHIBITION / % EXPRESSION: rat JNK2 (p54a) mRNA in A10 cells; for % EXPRESSION: relative to LIPOFECTIN-only control; for inhibition of rat JNK2 mRNA levels: A10 cells (Table 22); for % EXPRESSION JNK2 / capacity to modulate both JNK1 and JNK2 (Pan JNK): A10 cells; for capacity to modulate both JNK1 and JNK2 (Pan JNK): rat JNK1 and JNK2 mRNA
Protocol: (§1) In order to study the role of JNK proteins in animal models, oligonucleotides targeted to the genes encoding JNK1, JNK2 and JNK3 of Rattus norvegicus were prepared. These oligonucleotides are 2′-methoxyethoxy, phosphodiester/2′-hydroxyl, phosphorothioate/2′-methoxyethoxy, phosphodiester “gapmers” in which every cytosine residue is 5-methylcytosine (m5c). These antisense compounds were synthesized according to the methods of the disclosure. Certain of these oligonucleotides are additionally specifically hybridizable to JNK genes from other species as indicated herein. The oligonucleotides described in this Example were tested for their ability to modulate rat JNK mRNA levels essentially according to the methods described in the preceding Examples, with the exceptions that the cell line used was rat A10 aortic smooth muscle cells (ATCC No. ATCC CRL-1476) and the probes used were specific for rat JNK1, JNK2 or JNK3 (see infra). A10 cells were grown and treated with oligonucleotides essentially as described by (Cioffi et al. Mol. Pharmacol., 1997, 51, 383).
(§2) These antisense compounds were tested for their ability to modulate levels of p54? (JNK1) and p54a (JNK2) mRNA in A10 cells via Northern assays. Due to the high degree of sequence identity between the human and rat genes, radiolabeled human JNK1 (Example 3) and JNK2 (Example 4) cDNAs functioned as specific probes for the rat homologs.
These antisense compounds were tested for their ability to modulate levels of p54a (JNK2) mRNA in A10 cells using the radiolabeled human JNK2 cDNA as a probe as described supra. Oligonucleotides showing levels of inhibition from ≧ about 60% to about 100% of rat JNK2 mRNA levels include ISIS Nos. 18254, 18255, 18257, 18258, 18259, 18260 and 18265 (SEQ ID NOS: 125, 126, 128, 129, 130, 131 and 136, respectively). These oligonucleotides are preferred embodiments of the invention for modulating rat JNK2 expression. […] These oligonucleotides are thus more preferred embodiments of the invention for modulating rat JNK2 expression. ISIS 18259 (SEQ ID NO: 130) was chosen for use in further studies (infra).

rat JNK1 mRNA = experiment: Northern assay of rat JNK1 (p54?) mRNA in A10 aortic smooth muscle cells; assay type: cell-based; conditions: for % EXPRESSION JNK1: A10 cells; for inhibition of rat JNK1 mRNA levels: A10 cells (Table 20)
Protocol: as §1, §2

[1] = rat JNK1 mRNA, oligonucleotides targeted to rat JNK1
[2] = rat JNK2 mRNA, oligonucleotides targeted to rat JNK1

| Substance | % INHIBITION (rat JNK2 mRNA) [%] | % EXPRESSION (rat JNK2 mRNA) [%] | % EXPRESSION JNK1 (rat JNK1 mRNA; [1]) [%] | % EXPRESSION JNK2 (rat JNK2 mRNA; [2]) [%] | inhibition of rat JNK1 mRNA levels (rat JNK1 mRNA) | other results |
| --- | --- | --- | --- | --- | --- | --- |
| 18255 (antisense eTeGeTeGeG*dT*dG*dT*dG*dA*dA*d[5mC]*dA*d[5mC]*dA*eTeTeTeAeA) [compound 18255] | 79 | 21 | – | – | – | – |
| 18256 (antisense e[5mC]e[5mC]eAeTeA*dT*dG*dA*dA*dT*dA*dA*d[5mC]*d[5mC]*dT*eGeAe[5mC]eAeT) [compound 18256] | 20 | 80 | – | – | – | – |
| 18257 (antisense eGeAeTeAeT*d[5mC]*dA*dA*d[5mC]*dA*dT*dT*d[5mC]*dT*d[5mC]*e[5mC]eTeTeGeT) [compound 18257] | 68 | 32 | – | – | – | inhibition of rat JNK2 mRNA levels (rat JNK2 mRNA): ≥ 60% |
| 18258 (antisense eGe[5mC]eTeTe[5mC]*dG*dT*d[5mC]*d[5mC]*dA*d[5mC]*dA*dG*dA*dG*eAeTe[5mC]e[5mC]eG) [compound 18258] | 81 | 19 | – | – | – | – |
| 18259 (antisense eGe[5mC]eTe[5mC]eA*dG*dT*dG*dG*dA*d[5mC]*dA*dT*dG*dG*eAeTeGeAeG) [compound 18259] | 85 | 15 | – | – | – | % EXPRESSION JNK1 (rat JNK1 mRNA; dose response, 10 nM): 95%; % EXPRESSION JNK1 (rat JNK1 mRNA; dose response, 50 nM): 101%; % EXPRESSION JNK1 (rat JNK1 mRNA; dose response, 100 nM): 94%; % EXPRESSION JNK1 (rat JNK1 mRNA; dose response, 200 nM): 89%; % EXPRESSION JNK2 (rat JNK2 mRNA; dose response, 10 nM): 81%; % EXPRESSION JNK2 (rat JNK2 mRNA; dose response, 50 nM): 35%; % EXPRESSION JNK2 (rat JNK2 mRNA; dose response, 100 nM): 15%; % EXPRESSION JNK2 (rat JNK2 mRNA; dose response, 200 nM): 5% |
| 18260 (antisense eAeTe[5mC]eTeG*d[5mC]*dG*dA*dG*dG*dT*dT*dT*d[5mC]*dA*eTe[5mC]eGeGe[5mC]) [compound 18260] | – | – | – | – | – | inhibition of rat JNK2 mRNA levels (rat JNK2 mRNA): ≥ 60% |
| 18261 (antisense e[5mC]e[5mC]eAe[5mC]e[5mC]*dA*dG*d[5mC]*dT*d[5mC]*d[5mC]*d[5mC]*dA*dT*dG*eTeGe[5mC]eTe[5mC]) [compound 18261] | 53 | 47 | – | – | – | – |
| 18262 (antisense e[5mC]eAeGeTeT*dA*d[5mC]*dA*d[5mC]*dA*dT*dG*dA*dT*d[5mC]*eTeGeTe[5mC]eA) [compound 18262] | 50 | 50 | – | – | – | – |
| 18263 (antisense eAeAeGeAeG*dG*dA*dT*dT*dA*dA*dG*dA*dG*dA*eTeTeAeTeT) [compound 18263] | 37 | 63 | – | – | – | – |
| 18264 (DNA eAeGe[5mC]eAeG*dA*dG*dT*dG*dA*dA*dA*dT*dA*d[5mC]*eAeAe[5mC]eTeT; antisense) [compound 18264] | 52 | 48 | – | – | – | – |
| 18265 (DNA eTeGeTe[5mC]eA*dG*d[5mC]*dT*d[5mC]*dT*dA*d[5mC]*dA*dT*dT*eAeGeGe[5mC]eA; antisense) [compound 18265] | 62 | 38 | – | – | – | inhibition of rat JNK2 mRNA levels (rat JNK2 mRNA): ≥ 60% |
| 18266 (DNA eAeGeTeAeA*dG*d[5mC]*d[5mC]*d[5mC]*dG*dG*dT*d[5mC]*dT*d[5mC]*e[5mC]eTeAeAeG; antisense) [compound 18266] | 34 | 66 | – | – | – | – |
| 18267 (DNA eAeAeAeTeG*dG*dA*dA*dA*dA*dG*dG*dA*d[5mC]*dA*eGe[5mC]eAeGe[5mC]; antisense) [compound 18267] | 16 | 84 | – | – | – | – |
| 21857 (DNA e[5mC]eAeAe[5mC]eG*dT*d[5mC]*d[5mC]*d[5mC]*dG*d[5mC]*dG*d[5mC]*dT*d[5mC]*eGeGe[5mC]e[5mC]eG; antisense) [compound 21857] | – | – | 24 | 91 | – | – |
| 21858 (DNA e[5mC]e[5mC]eTeGe[5mC]*dT*d[5mC]*dG*d[5mC]*dG*dG*d[5mC]*dT*d[5mC]*d[5mC]*eGe[5mC]eGeTeT; antisense) [compound 21858] | – | – | 8 | 89 | at least 90% | – |
| 21859 (DNA e[5mC]eTe[5mC]eAeT*dG*dA*dT*dG*dG*d[5mC]*dA*dA*dG*d[5mC]*eAeAeTeTeA) [compound 21859] | – | – | 5 | 106 | at least 90% | % EXPRESSION JNK1 (rat JNK1 mRNA; dose response, 10 nM): 74%; % EXPRESSION JNK1 (rat JNK1 mRNA; dose response, 50 nM): 25%; % EXPRESSION JNK1 (rat JNK1 mRNA; dose response, 100 nM): 11%; % EXPRESSION JNK1 (rat JNK1 mRNA; dose response, 200 nM): 8%; % EXPRESSION JNK2 (rat JNK2 mRNA; dose response, 10 nM): 101%; % EXPRESSION JNK2 (rat JNK2 mRNA; dose response, 50 nM): 98%; % EXPRESSION JNK2 (rat JNK2 mRNA; dose response, 100 nM): 99%; % EXPRESSION JNK2 (rat JNK2 mRNA; dose response, 200 nM): 101% |
| 21860 (DNA eTeGeTeTeG*dT*d[5mC]*dA*d[5mC]*dG*dT*dT*dT*dA*d[5mC]*eTeTe[5mC]eTeG; antisense) [compound 21860] | – | – | 8 | 98 | at least 90% | – |
| 21861 (DNA e[5mC]eGeGeTeA*dG*dG*d[5mC]*dT*d[5mC]*dG*d[5mC]*dT*dT*dA*eGe[5mC]eAeTeG; antisense) [compound 21861] | – | – | 6 | 13 | at least 90% | capacity to modulate both JNK1 and JNK2 (Pan JNK) (rat JNK2 mRNA): demonstrated a capacity to modulate both JNK1 and JNK2 |
| 21862 (DNA e[5mC]eTeAeGeG*dG*dA*dT*dT*dT*d[5mC]*dT*dG*dT*dG*eGeTeGeTeG; antisense) [compound 21862] | – | – | 6 | 133 | at least 90% | – |
| 21863 (DNA e[5mC]eAeGe[5mC]eA*dG*dA*dG*dT*dG*dA*dA*dG*dG*dT*eGe[5mC]eTeTeG; antisense) [compound 21863] | – | – | 24 | 107 | – | – |
| 21864 (DNA eTe[5mC]eGeTeT*d[5mC]*d[5mC]*dT*dG*d[5mC]*dA*dG*dT*d[5mC]*d[5mC]*eTeTeGe[5mC]e[5mC]; antisense) [compound 21864] | – | – | 8 | 106 | at least 90% | – |
| 21865 (DNA e[5mC]e[5mC]eAeTeT*dT*d[5mC]*dT*d[5mC]*d[5mC]*d[5mC]*dA*dT*dA*dA*eTeGe[5mC]eAe[5mC]; antisense) [compound 21865] | – | – | 5 | 50 | at least 90% | – |
| 21866 (DNA eTeGeAeAeT*dT*d[5mC]*dA*dG*dG*dA*d[5mC]*dA*dA*dG*eGeTeGeTeT; antisense) [compound 21866] | – | – | 8 | 98 | at least 90% | – |
| 21867 (DNA eAeGe[5mC]eTeT*d[5mC]*dG*dT*d[5mC]*dT*dA*d[5mC]*dG*dG*dA*eGeAeTe[5mC]e[5mC]; antisense) [compound 21867] | – | – | 5 | 21 | at least 90% | capacity to modulate both JNK1 and JNK2 (Pan JNK) (rat JNK2 mRNA): demonstrated a capacity to modulate both JNK1 and JNK2 |
| 21868 (DNA e[5mC]eAe[5mC]eTe[5mC]*d[5mC]*dT*d[5mC]*dT*dA*dT*dT*dG*dT*dG*eTeGe[5mC]eTe[5mC]; antisense) [compound 21868] | – | – | 15 | 112 | – | – |
| 21869 (DNA eGe[5mC]eTeGe[5mC]*dA*d[5mC]*d[5mC]*dT*dA*dA*dA*dG*dG*dA*eGeAe[5mC]eGeG; antisense) [compound 21869] | – | – | 30 | 93 | – | – |
| 21870 (DNA e[5mC]e[5mC]eAeGeA*dG*dT*d[5mC]*dG*dG*dA*dT*d[5mC]*dT*dG*eTeGeGeAe[5mC]; antisense) [compound 21870] | – | – | 11 | 87 | – | – |
